From ChEMBL document CHEMBL1201862, “PubChem BioAssay data set” (2004)
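Briefly, cells in 96-well plates were exposed to five compound concentrations for 48 h, and endpoints were estimated by linear interpolation. Here, GI50 denotes the concentration required for 50% inhibition of growth.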 Active and inactive are the calls of the source. Cut-off read from the data, not from the text of the source: active = GI50 up to about 1.1 µM and inactive = higher.

Tests used:
Assay in all cases: NCI-60 cell line screen, 48 h
DMS-114 = tested on: DMS-114
SN12C = tested on: SN12C
OVCAR-4 = tested on: OVCAR-4
XF498 = tested on: XF498
SK-MEL-28 = tested on: SK-MEL-28
RXF 393 = tested on: RXF 393
M19-MEL = tested on: M19-MEL
NCI-H522 = tested on: NCI-H522
OVCAR-5 = tested on: OVCAR-5
NCI-H23 = tested on: NCI-H23
SNB-75 = tested on: SNB-75
HL-60 = tested on: HL-60
Malme-3M = tested on: Malme-3M
MOLT-4 = tested on: MOLT-4
SK-OV-3 = tested on: SK-OV-3
COLO 205 = tested on: COLO 205
Hs-578T = tested on: Hs-578T
T47D = tested on: T47D
DU-145 = tested on: DU-145
BT-549 = tested on: BT-549

| Structure (SMILES) | GI50 (DMS-114) | GI50 (SN12C) | GI50 (OVCAR-4) | GI50 (XF498) | GI50 (SK-MEL-28) | GI50 (RXF 393) | GI50 (M19-MEL) | GI50 (NCI-H522) | GI50 (OVCAR-5) | GI50 (NCI-H23) | GI50 (SNB-75) | GI50 (HL-60) | GI50 (Malme-3M) | GI50 (MOLT-4) | GI50 (SK-OV-3) | GI50 (COLO 205) | GI50 (Hs-578T) | GI50 (T47D) | GI50 (DU-145) | GI50 (BT-549) |
| --- | --- | --- | --- | --- | --- | --- | --- | --- | --- | --- | --- | --- | --- | --- | --- | --- | --- | --- | --- | --- |
| CC(=O)OC1CC2C(C)(C)OC(=O)CC(OC(C)=O)[C@]2(C)C2CCC3(C)C(=CCC3c3ccoc3)[C@]12C (some centres not stated) | 19.6 µM (inactive) | 32.6 µM (inactive) | 46.5 µM (inactive) | 13.8 µM (inactive) | 94.6 µM (inactive) | 24 µM (inactive) | 17.5 µM (inactive) | 15.6 µM (inactive) | 32.8 µM (inactive) | 27.2 µM (inactive) | 18.3 µM (inactive) | 16.1 µM (inactive) | 25.6 µM (inactive) | 5.9 µM (inactive) | 21.7 µM (inactive) | 14.1 µM (inactive) | – | – | – | – |
| COc1cc(-c2nnc3n2NC=C(C(=O)O)S3)cc(OC)c1OC | > 56.5 µM (inactive) | > 93.1 µM (inactive) | > 62.2 µM (inactive) | > 100 µM (inactive) | > 100 µM (inactive) | > 100 µM (inactive) | > 69.3 µM (inactive) | > 100 µM (inactive) | > 100 µM (inactive) | > 100 µM (inactive) | > 100 µM (inactive) | > 61.4 µM (inactive) | > 100 µM (inactive) | > 100 µM (inactive) | > 100 µM (inactive) | > 57.5 µM (inactive) | – | – | – | – |
| Cc1ccc(C)c(NC(=O)CC2SC(Nc3ccccc3Cl)=NC2=O)c1 (configuration not stated) | 29.9 µM (inactive) | > 100 µM (inactive) | 65.9 µM (inactive) | > 100 µM (inactive) | > 100 µM (inactive) | 90.8 µM (inactive) | 94.4 µM (inactive) | 27 µM (inactive) | > 100 µM (inactive) | 43 µM (inactive) | 55.7 µM (inactive) | 32.3 µM (inactive) | > 100 µM (inactive) | 81.5 µM (inactive) | > 100 µM (inactive) | > 100 µM (inactive) | – | – | – | – |
| Cc1ccc(C(=O)Nc2ccc(S(=O)(=O)O)c3cc(S(=O)(=O)O)cc(S(=O)(=O)O)c23)cc1NC(=O)c1cccc(NC(=O)Nc2cccc(C(=O)Nc3cc(C(=O)Nc4ccc(S(=O)(=O)O)c5cc(S(=O)(=O)O)cc(S(=O)(=O)O)c45)ccc3C)c2)c1 [SURAMIN] | 28.6 µM (inactive) | > 80.9 µM (inactive) | 79.3 µM (inactive) | 27 µM (inactive) | > 91.6 µM (inactive) | > 92.7 µM (inactive) | 59.7 µM (inactive) | 88.5 µM (inactive) | > 50.6 µM (inactive) | 68.9 µM (inactive) | 48.2 µM (inactive) | 49.4 µM (inactive) | > 83 µM (inactive) | > 80 µM (inactive) | > 88.1 µM (inactive) | > 72.9 µM (inactive) | > 100 µM (inactive) | > 100 µM (inactive) | > 100 µM (inactive) | 95.7 µM (inactive) |
| Nc1cc2c3c(cccc3c1)C(=O)N(CCN1CCN(CCN3C(=O)c4cccc5cc(N)cc(c45)C3=O)CC1)C2=O | > 100 µM (inactive) | > 100 µM (inactive) | > 100 µM (inactive) | > 100 µM (inactive) | > 100 µM (inactive) | > 100 µM (inactive) | > 100 µM (inactive) | > 100 µM (inactive) | > 100 µM (inactive) | > 100 µM (inactive) | > 100 µM (inactive) | > 100 µM (inactive) | > 100 µM (inactive) | 25.3 µM (inactive) | > 100 µM (inactive) | > 100 µM (inactive) | – | – | – | – |
| O=c1nc(N2CCCC2)nc(N2CCCC2)s1 | > 100 µM (inactive) | > 100 µM (inactive) | > 100 µM (inactive) | > 100 µM (inactive) | > 100 µM (inactive) | > 100 µM (inactive) | > 100 µM (inactive) | > 100 µM (inactive) | > 100 µM (inactive) | > 100 µM (inactive) | > 100 µM (inactive) | > 100 µM (inactive) | > 100 µM (inactive) | > 100 µM (inactive) | > 100 µM (inactive) | – | – | – | – | – |
| Cn1cnc(S[C@H]2[C@H]3C(=O)C=C4S[C@H]5C[C@]42C2=C(N5)C(=O)c4[nH]cc5c4C2=[N+]3CC5)c1C[C@H](N)C(=O)O | 2.52 µM (inactive) | 3.56 µM (inactive) | 17.1 µM (inactive) | 15.3 µM (inactive) | 16.8 µM (inactive) | 22.1 µM (inactive) | 8.73 µM (inactive) | 4.58 µM (inactive) | 15.1 µM (inactive) | 10.7 µM (inactive) | 18.7 µM (inactive) | 15.3 µM (inactive) | 3.72 µM (inactive) | 12.7 µM (inactive) | 21.4 µM (inactive) | 2.11 µM (inactive) | – | – | – | – |
| Cc1c2ccncc2c(C)c2c1[nH]c1ccc(OC(C)C)cc12 | 1.49 µM (inactive) | 1.06 µM (active) | 1.71 µM (inactive) | 1.52 µM (inactive) | 1.66 µM (inactive) | 1.33 µM (inactive) | 1.71 µM (inactive) | 1.63 µM (inactive) | 1.48 µM (inactive) | 1.53 µM (inactive) | 1.83 µM (inactive) | 1.84 µM (inactive) | 1.58 µM (inactive) | 0.59 µM (active) | 1.42 µM (inactive) | 1.32 µM (inactive) | – | – | – | – |
| CC1(C)CC(=O)C(CC2C(=O)CCCC2=O)C(=O)C1 | > 100 µM (inactive) | > 100 µM (inactive) | > 100 µM (inactive) | 33.2 µM (inactive) | > 100 µM (inactive) | > 100 µM (inactive) | > 100 µM (inactive) | > 100 µM (inactive) | > 100 µM (inactive) | > 100 µM (inactive) | > 100 µM (inactive) | > 100 µM (inactive) | > 100 µM (inactive) | > 100 µM (inactive) | > 100 µM (inactive) | > 100 µM (inactive) | – | – | – | – |
